The results in this text go back to ChEMBL document CHEMBL3286271, “Synthesis and cytotoxic effect on cancer cell lines and macrophages of novel progesterone derivatives having an ester or a carbamate function at C-3 and C-17” (Eur J Med Chem, 2014).

One data set has as its system MCF7. Put plainly: Cytotoxicity against human MCF7 cells assessed as growth inhibition at 50 uM after 48 hrs by SRB method. It is filed as functional. The note with it: for inhibition of growth at 50 µM: MCF7, 48 h, read-out: GI. For orientation: In SRB staining, fixed cells bind dye roughly in proportion to their protein.
A short description of data set [1]: Cytotoxicity against mouse J774 cells assessed as growth inhibition at 50 uM after 48 hrs by SRB method. It is filed as cell-based. The settings on record: read-out: GI.
Another data set relates to PC-3. Kind of data set: Cytotoxicity against human PC3 cells assessed as growth inhibition at 50 uM after 48 hrs by SRB method. The class given is functional. The note with it: PC-3, 48 h, read-out: GI.
The nature of data set [2]: (§1) Cytotoxicity against human HCT15 cells assessed as growth inhibition at 50 uM after 48 hrs by SRB method. It is filed as functional. The note with it: HCT-15, 48 h, read-out: GI.
A further data set has as its system HCT-15. The description is as §1. The class given is functional.

The structures appear in SMILES notation. Activity calls are given as the source filed them. The rule behind the calls is not given here.

Turning to `CC(=O)C1=CC[C@H]2[C@@H]3CC(=O)C4=C[C@@H](O)CC[C@]4(C)[C@H]3CC[C@]12C`, the inhibition of growth at 50 µM was found to be 63.5% with MCF7, 70.6% in the data set on PC-3 and 67.7% in data set [2]. The inhibition at 48 h, 50 µM in data set [1] is 98.9%.
For `CC(=O)[C@@]1(OC(=O)Nc2ccc(Br)cc2)CC[C@H]2[C@@H]3C=CC4=CC(=O)CC[C@]4(C)[C@H]3CC[C@@]21C`, the results for the inhibition of growth at 50 µM in the data set with MCF7 and with PC-3 were 13.1% and 26.4%, respectively. Besides, the inhibition at 48 h, 50 µM in data set [1] was found to be 32%. The “growth inhibition (GI)” value with HCT-15 is “inactive”.
As to `CC(=O)C1=CC[C@H]2[C@@H]3CC(=O)C4=C[C@@H](OC(=O)Nc5ccc(I)cc5)CC[C@]4(C)[C@H]3CC[C@]12C`, the inhibition of growth at 50 µM in the data set with MCF7 stood at 33.1%; in the data set on PC-3, 42.8%; in data set [2], 43.2%. Moreover, the inhibition at 48 h, 50 µM in data set [1] amounted to 70.7%.
Taken in the same sequence, the figures for `CC(=O)C1=CC[C@H]2[C@@H]3CC(=O)C4=C[C@@H](OC(=O)c5ccc(F)cc5)CC[C@]4(C)[C@H]3CC[C@]12C` were 20.8%, 8.3%, 22.8% and 50%.
On the same counts, the results for `CC(=O)[C@@]1(OC(=O)c2ccc(F)cc2)CC[C@H]2[C@@H]3C=CC4=CC(=O)CC[C@]4(C)[C@H]3CC[C@@]21C` are 29.2%, 30.9%, 35.6% and 100%.
`CC(=O)[C@@]1(OC(=O)c2ccc(I)cc2)CC[C@H]2[C@@H]3C=CC4=CC(=O)CC[C@]4(C)[C@H]3CC[C@@]21C`: the inhibition of growth at 50 µM in the data set on MCF7 amounted to 22.6%; with PC-3, 30.8%; in data set [2], 27.5%. Besides, the inhibition at 48 h, 50 µM in data set [1] is 74.3%.
On the same counts, the results for `CC(=O)C1=CC[C@H]2[C@@H]3CC(=O)C4=C[C@@H](OC(=O)Nc5ccccc5)CC[C@]4(C)[C@H]3CC[C@]12C` are 34.7%, 4.5%, 41.4% and 73.8%.
Taken in the same sequence, the figures for `CC(=O)C1=CC[C@H]2[C@@H]3CC(=O)C4=C[C@@H](OC(=O)Nc5ccc(F)cc5)CC[C@]4(C)[C@H]3CC[C@]12C` were 34.6%, 33%, 60.1% and 78.3%.
As to `CC(=O)C1=CC[C@H]2[C@@H]3CC(=O)C4=C[C@@H](OC(=O)Nc5ccc(Cl)cc5)CC[C@]4(C)[C@H]3CC[C@]12C`, the inhibition of growth at 50 µM in the data set with MCF7 worked out at 13.7%; in the data set with PC-3, 63.4%; in data set [2], 65.3%. Besides, the inhibition at 48 h, 50 µM in data set [1] is 92.4%.
On the same counts, the results for `CC(=O)C1=CC[C@H]2[C@@H]3CC(=O)C4=C[C@@H](OC(=O)c5ccc(I)cc5)CC[C@]4(C)[C@H]3CC[C@]12C` are 100%, 64.1%, 67.3% and 61.1%.
For `CC(=O)[C@@]1(O)CC[C@H]2[C@@H]3C=CC4=CC(=O)CC[C@]4(C)[C@H]3CC[C@@]21C`, the inhibition of growth at 50 µM in the data set with MCF7 was found to be 27.8%; in the data set on PC-3, 39.6%; in data set [2], 25%. Further, the inhibition at 48 h, 50 µM in data set [1] worked out at 58.5%.
With `CC(=O)[C@@]1(OC(=O)Nc2ccc(F)cc2)CC[C@H]2[C@@H]3C=CC4=CC(=O)CC[C@]4(C)[C@H]3CC[C@@]21C`, the inhibition of growth at 50 µM with MCF7 is 20%; in the data set with PC-3 it was 33.4%. Further, in data set [1], the inhibition at 48 h, 50 µM is 43.4%. Also, the “growth inhibition (GI)” value with HCT-15 is “inactive”.
On to `CC(=O)C1=CC[C@H]2[C@@H]3CC(=O)C4=C[C@@H](OC(=O)c5ccccc5)CC[C@]4(C)[C@H]3CC[C@]12C`, for which the inhibition of growth at 50 µM with MCF7 came to 32.7%; in the data set with PC-3 it was 2.9%; in data set [2], 48.7%. For the same compound, the inhibition at 48 h, 50 µM in data set [1] was found to be 89.3%.
`CC(=O)C1=CC[C@H]2[C@@H]3CC(=O)C4=C[C@@H](OC(=O)c5ccc(Br)cc5)CC[C@]4(C)[C@H]3CC[C@]12C`: the inhibition of growth at 50 µM came out at 86.2% in the data set with MCF7, 51.9% with PC-3 and 55.9% in data set [2]. Further, the inhibition at 48 h, 50 µM in data set [1] is 60.9%.
On the same counts, the results for `CC(=O)[C@@]1(OC(=O)c2ccc(Cl)cc2)CC[C@H]2[C@@H]3C=CC4=CC(=O)CC[C@]4(C)[C@H]3CC[C@@]21C` are 39.8%, 46.1%, 39.3% and 73.6%.
`CC(=O)[C@@]1(OC(=O)c2ccc(Br)cc2)CC[C@H]2[C@@H]3C=CC4=CC(=O)CC[C@]4(C)[C@H]3CC[C@@]21C`: the inhibition of growth at 50 µM with MCF7 came to 44.4%; with PC-3 it was 84.7%; in data set [2] it was 53.9%. Further, the inhibition at 48 h, 50 µM in data set [1] came out at 57%.
Take `CC(=O)N1CCN(c2ccc(OCC3COC(Cn4ccnc4)(c4ccc(Cl)cc4Cl)O3)cc2)CC1` (configuration not stated) [KETOCONAZOLE]: the inhibition of growth at 50 µM with MCF7 was found to be 95.2%; in the data set with PC-3 it was 88.5%; in data set [2], 90.6%. In addition, the inhibition at 48 h, 50 µM in data set [1] was 54%.
On the same counts, the results for `CC(=O)C1=CC[C@H]2[C@@H]3CC(=O)C4=C[C@@H](OC(=O)Nc5ccc(Br)cc5)CC[C@]4(C)[C@H]3CC[C@]12C` are 14%, 26.9%, 30% and 80.5%.
Turning to `CC(=O)[C@@]1(OC(=O)Nc2ccc(I)cc2)CC[C@H]2[C@@H]3C=CC4=CC(=O)CC[C@]4(C)[C@H]3CC[C@@]21C`, the “growth inhibition (GI)” value in the data set on MCF7 and in the data set on HCT-15 was “inactive” throughout. In data set [1], the inhibition at 48 h, 50 µM was found to be 21.7%. Further, the inhibition of growth at 50 µM in the data set on PC-3 stood at 17.8%.
On to `CC(=O)[C@@]1(OC(=O)Nc2ccc(Cl)cc2)CC[C@H]2[C@@H]3C=CC4=CC(=O)CC[C@]4(C)[C@H]3CC[C@@]21C`, for which the inhibition of growth at 50 µM is 11.2% in the data set on MCF7 and 15.8% in the data set with PC-3. In data set [1], the inhibition at 48 h, 50 µM was determined as 36.9%. For the same compound, in the data set on HCT-15, the “growth inhibition (GI)” value was “inactive”.
On to `CC(=O)[C@@]1(OC(=O)Nc2ccccc2)CC[C@H]2[C@@H]3C=CC4=CC(=O)CC[C@]4(C)[C@H]3CC[C@@]21C`, for which the inhibition of growth at 50 µM in the data set on MCF7 was 51.3%; with PC-3, 96.6%; in data set [2], 45.3%. The inhibition at 48 h, 50 µM in data set [1] was determined as 48.2%.
Taken in the same sequence, the figures for `CC(=O)[C@@]1(OC(=O)c2ccccc2)CC[C@H]2[C@@H]3C=CC4=CC(=O)CC[C@]4(C)[C@H]3CC[C@@]21C` were 26.8%, 42.5%, 50.8% and 100%.
As to `CC(=O)C1=CC[C@H]2[C@@H]3CC(=O)C4=C[C@@H](OC(=O)c5ccc(Cl)cc5)CC[C@]4(C)[C@H]3CC[C@]12C`, the inhibition of growth at 50 µM in the data set with MCF7 came to 100%; in the data set on PC-3 it was 87.3%; in data set [2], 88.2%. In addition, the inhibition at 48 h, 50 µM in data set [1] was determined as 38.8%.
